What all share (assay): DTP human tumour cell line panel, 48 h
Experiment [1] concerns HCT-116 colon.
For experiment [2], the system named is MDA-MB-231 breast.
Experiment [3] has as its system NCI/ADR-RES ovarian.
The subject of experiment [4] is OVCAR-5 ovarian.
Experiment [5] deals with SF-268 CNS.
For experiment [6], the system named is SK-MEL-28 melanoma.
Experiment [7] concerns SK-MEL-5 melanoma.
The test system of experiment [8] is SR leukemia.
For experiment [9], the system named is TK-10 renal.
For experiment [10], the system named is UACC-62 melanoma.

Several values for one entry are separate records, joined by “and”; a condition that tells them apart may be missing. Equal values may be shown once.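 Dose response: 5 concentrations. Exposure: 48 h. Format: 96-well plates. Endpoint: linear interpolation; highest concentration if not reached. GI50: concentration for 50% inhibition of growth. TGI marks complete inhibition of growth.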

Experimental findings from PubChem BioAssay (NCI) are described below.

Take `COc1cc(OC)c(-c2cc(=O)c3c(OC)c(OC)c(OC)c(OC)c3o2)cc1OC`: the TGI in experiment [1], in [2], in [3], in experiment [4], in experiment [5] and in experiment [6] was more than 100 µM throughout. Also, the TGI (usually the concentration at which net growth stops) in [7] is more than 100 µM; in [8] it was more than 100 µM; in experiment [9] it was more than 100 µM; in experiment [10], more than 88.5 µM.
As to `CCCOC(=O)N[C@H]1CCc2c(Br)c(OC)c(OC)c(OC)c2-c2ccc(SC)c(=O)cc21`, the GI50 (usually the concentration giving 50% growth inhibition) is 0.0248 µM in experiment [1]; 0.0359 µM in experiment [2]; 0.0345 µM in experiment [3]; 0.0501 µM in experiment [4]; 0.0455 µM in [5]; 2.83 µM in experiment [6]. Further, the concentration for 50% growth inhibition (GI50) in experiment [7] is 0.0162 µM; in experiment [8] it was less than 0.01 µM; in experiment [9] it was 4.67 µM; in experiment [10] it was 0.0365 µM. For the same compound, the TGI was 5.07 µM in experiment [1]; 6.45 µM in [2]; more than 57.4 µM in experiment [3]; 34.5 µM in experiment [4]; 17.8 µM in experiment [5]; 23.2 µM in experiment [6]. The TGI is 0.0501 µM in experiment [7], more than 40.5 µM in experiment [8], more than 76.6 µM in experiment [9] and 13.2 µM in experiment [10].
Regarding `COc1ccccc1-c1cc2c3c(nc4ccccc42)C(=O)c2cccnc2-c3n1`, the GI50 is 4.89 µM in experiment [1]; 18.2 µM in experiment [2]; 7.11 µM in [3]; 15 µM in experiment [4]; 17.6 µM in [5]; 18.4 µM in experiment [6]. Besides, the GI50 in experiment [7] is 12.5 µM; in experiment [8] it was more than 100 µM; in experiment [9] it was 14.8 µM; in experiment [10], 16.4 µM. The TGI was 14.6 µM in experiment [1]; more than 56.7 µM in experiment [2]; 32.6 µM in [3]; 34 µM in experiment [4]; 38.9 µM in experiment [5]; 34.7 µM in experiment [6]. The TGI in experiment [7] is 25.4 µM; in [8], more than 100 µM; in experiment [9], 29.6 µM; in experiment [10], 36.7 µM.
For the compound `CCN(CC)c1ccc(NC(C(=O)c2ccccc2)c2ccccc2)cc1` (stereo unspecified), the GI50 is 2.58 µM in experiment [1]; 2.85 µM in [2]; 2.54 µM in [3]; 2.24 µM in experiment [4]; 4.23 µM in [5]; 1.81 µM in experiment [6]. Moreover, the GI50 is 2 µM in [7], 0.594 µM in experiment [8], 2.49 µM in experiment [9] and 1.92 µM in [10]. In addition, the TGI in experiment [1] was determined as 6.6 µM; in experiment [2] it was 10.3 µM; in experiment [3] it was 6.21 µM; in [4], 5.26 µM; in experiment [5], 17.4 µM; in experiment [6], 3.6 µM. Also, the TGI in experiment [7] is 4.66 µM; in experiment [8] it was more than 100 µM; in [9], 7.53 µM; in experiment [10], 4.09 µM.
Regarding `C[C@@H]1O[C@@H](O[C@H]2C[C@@H](O)[C@]3(CO)C4C(CC[C@]3(O)C2)[C@@]2(O)CC[C@H](C3=CC(=O)OC3)[C@@]2(C)C[C@H]4O)[C@H](O)[C@H](O)[C@H]1O` (stereo partly specified), the GI50 in experiment [1] is 0.0174 µM; in [2], 0.111 µM; in experiment [3] it was 0.0154 µM; in experiment [4], 0.0606 µM; in experiment [5], 0.0189 µM; in [6], 0.0881 µM. Further, the GI50 in experiment [7] is 0.016 µM; in [8] it was 0.0105 µM; in experiment [9] it was 0.0148 µM; in experiment [10] it was 0.0819 µM. For the same compound, the TGI worked out at 0.056 µM in [1]; 0.286 µM in experiment [2]; 0.0452 µM in experiment [3]; 0.127 µM in [4]; 0.0642 µM in [5]; 0.164 µM in experiment [6]. Besides, the TGI in [7] is 0.0533 µM; in experiment [8], 0.0317 µM; in experiment [9], 0.0384 µM; in [10] it was 0.151 µM.
As for `COc1ccc2c(c1)C(=O)c1c-2c(NCCCN(C)C)nc2ccccc12`, the GI50 in [1] was 1.25 µM; in [2], 1.98 µM; in [3] it was 4.03 µM; in experiment [4], 10.2 µM; in experiment [5], 1.7 µM; in experiment [6], 0.524 µM. For the same compound, the GI50 was 3.87 µM in experiment [7], 1.09 µM in [8], 4.33 µM in experiment [9] and 2.09 µM in experiment [10]. Also, the TGI came out at 2.65 µM in experiment [1]; 11.6 µM in [2]; 19.4 µM in experiment [3]; 21.9 µM in [4]; 4.71 µM in experiment [5]; 1.94 µM in [6]. The TGI was found to be 14.4 µM in experiment [7], 3.58 µM in experiment [8], 18.3 µM in experiment [9] and 4.41 µM in [10].
For `Cc1oc2ccccc2c(=O)c1Cn1nnc2ccccc21`, the TGI in experiment [1], in [2], in experiment [3], in experiment [4], in experiment [5] and in experiment [6] was more than 100 µM each time. In addition, the TGI is 48.5 µM in experiment [7], more than 100 µM in [8], more than 100 µM in experiment [9] and more than 100 µM in [10].
With `COC1/C=C/O[C@@]2(C)Oc3c(C)c(O)c4c(O)c(cc(O)c4c3C2=O)NC(=O)/C(C)=C\C=C\[C@H](C)C(O)[C@@H](C)[C@@H](O)[C@@H](C)[C@H](OC(C)=O)[C@@H]1C` (stereo partly specified), the GI50 in experiment [1] is 12.2 µM and 12.5 µM; in [2] it was 14.2 µM; in [3], 24 µM; in [5] it was 18.3 µM; in [7] it was 25.6 µM; in experiment [8], 3.92 µM. The GI50 in experiment [10] was 14.8 µM. Besides, the TGI in [1] is 25.4 µM and 26.1 µM; in experiment [2], 27.2 µM and 56.2 µM; in experiment [3], 59.7 µM and 86 µM; in [4], 80.1 µM; in experiment [5], 33.4 µM and 61.7 µM; in experiment [6], 52 µM and 57.3 µM. Further, the TGI in experiment [7] is 67.6 µM and 88.1 µM; in experiment [8] it was 20.6 µM and 42.7 µM; in experiment [9], 32.1 µM and 39.1 µM; in [10], 28 µM and 42.2 µM.
Consider `O=C1Nc2ccc(F)c3c(OCCO)cc(-c4ccc[nH]4)c1c23`, for which the GI50 is 1.15 µM in experiment [1]; 2.03 µM in experiment [2]; 4.01 µM in [3]; 2.35 µM in experiment [4]; 2.66 µM in [5]; 4.43 µM in experiment [6]. The GI50 in experiment [7] is 2.45 µM; in [8], 0.963 µM; in experiment [9], 1.41 µM; in experiment [10], 2.78 µM. For the same compound, the TGI came to 20.4 µM in [1]; 9.53 µM in [2]; 20.1 µM in [3]; 10 µM in experiment [4]; 6.87 µM in experiment [5]; 15.1 µM in experiment [6]. The total growth inhibition concentration (TGI) is 6.29 µM in experiment [7], 5.51 µM in [8], 6.42 µM in experiment [9] and 6.33 µM in experiment [10].
Turning to `COc1ccc(C2C3=C(NC(=O)C2C#N)c2ccc4ccccc4c2OCC3)cc1` (stereo unspecified), the GI50 in experiment [1] is 35.8 µM; in experiment [2] it was 17.9 µM; in experiment [3], 31.3 µM; in experiment [4] it was more than 100 µM; in experiment [5], 23.3 µM; in experiment [6] it was 42.3 µM. Moreover, the GI50 in experiment [7] was more than 100 µM; in experiment [8], more than 100 µM; in experiment [9] it was 29.5 µM; in [10] it was 19 µM. The TGI in [1] was more than 100 µM; in [2], 43.2 µM; in [3] it was more than 100 µM; in [4], more than 100 µM; in experiment [5] it was 76.2 µM; in experiment [6] it was more than 100 µM. The TGI in experiment [7] is more than 100 µM; in experiment [8], more than 100 µM; in [9], 76.8 µM; in [10], 45.5 µM.
With `Cc1nc2sc(C(=O)Nc3cccc4ccccc34)c(N)c2cc1C(C)O` (stereo unspecified), the GI50 was 0.233 µM in experiment [1]; 0.751 µM in [2]; 0.17 µM in experiment [3]; 1.5 µM in [4]; 0.367 µM in experiment [5]; 0.882 µM in experiment [6]. Besides, the GI50 in experiment [7] was 0.185 µM; in experiment [8], 0.15 µM; in experiment [9] it was 32.2 µM; in [10], 0.243 µM. The TGI in [1] is more than 50 µM; in experiment [2] it was more than 50 µM; in [4] it was more than 50 µM; in [5] it was more than 50 µM; in experiment [6], more than 50 µM; in [7], 5.81 µM. The TGI in experiment [8], in experiment [9] and in experiment [10] was more than 50 µM in each case.
